The record followed here is patent US8871774B2, “Inhibitors of influenza viruses replication” (priority 2010, dated 2014).

Experiment [1] relates to influenza A virus (A/PR/8/34). Put plainly: cytopathic effect (CPE) assay, MDCK cell protection by ATP detection. The class given is cell-based. Particulars: mean IC50, MDCK cells, A/PR/8/34, 72 hours, 50% cell protection.
In experiment [2] the test system is Influenza virus, strain A/PR/8/34. Put plainly: microbe, parasite or virus in culture. Format: cell-based.
Where [3] appears, read: Influenza A virus, Table 1, read-out: Flu, MDCK IC50.
[4] abbreviates: unidentified influenza virus, PR/8, read-out: bDNA EC50 (uM).
[5] abbreviates: Influenza A virus, Table 2, read-out: Flu MDCK IC50.

SMILES strings stand for the structures. Counter-ions that a name gives are not always drawn. Like-named read-outs stand apart in the source and are kept apart here. A value given as a limit tells only on which side of the number the result lay.

In the case of `O=C(N[C@@H]1CCC[C@H](Nc2nc(-c3n[nH]c4ncccc34)ncc2F)C1)N1CCCC1` [Compound I-12, N-((1R,3S)-3-((5-fluoro-2-(1H-pyrazolo[3,4-b]pyridin-3-yl)pyrimidin-4-yl)amino)cyclohexyl)pyrrolidine-1-carboxamide], in experiment [1] (setting [3]), the IC50 is < 3.3 µM. For the same compound, the 50% effective concentration (EC50) in experiment [2] (setting [4]) was < 3.3 µM.

`O=C(N[C@@H]1CCC[C@H](Nc2nc(-c3n[nH]c4ncc(Cl)cc34)ncc2F)C1)N1CCC[C@H]1CO` [Compound I-4, (S)—N-((1R,3S)-3-((2-(5-chloro-1H-pyrazolo[3,4-b]pyridin-3-yl)-5-fluoropyrimidin-4-yl)amino)cyclohexyl)-2-(hydroxymethyl)pyrrolidine-1-carboxamide]: the IC50 in experiment [1] (setting [3]) was < 3.3 µM. Further, the half-maximal effective concentration (EC50) in experiment [2] (setting [4]) was < 3.3 µM.

Turning to `O=C(O)[C@H]1C2CCCC(CC2)[C@@H]1Nc1nc(-c2n[nH]c3ncc(F)cc23)ncc1F` (mixture of isomers) [Compound I-37, (+/−)-7-(5-fluoro-2-(5-fluoro-1H-pyrazolo[3,4-b]pyridin-3-yl)pyrimidin-4-ylamino)bicyclo[3.2.2]nonane-6-carboxylic acid], the IC50 in experiment [1] (setting [3]) is < 3.3 µM. For the same compound, in experiment [2] (setting [4]), the half-maximal effective concentration (EC50) is < 3.3 µM.

Regarding `O=C(O)[C@H]1C2CCC(CC2)[C@@H]1Nc1nc(-c2n[nH]c3ncc(F)cc23)ncc1Cl` [Compound I-34, (2S,3S)-3-((5-chloro-2-(5-fluoro-1H-pyrazolo[3,4-b]pyridin-3-yl)pyrimidin-4-yl)amino)bicyclo[2.2.2]octane-2-carboxylic acid], in experiment [1] (setting [3]), the IC50 was < 3.3 µM. Moreover, in experiment [2] (setting [4]), the EC50 is < 3.3 µM.

For `O=C(N[C@@H]1CCC[C@H](Nc2nc(-c3n[nH]c4ncc(F)cc34)ncc2F)C1)c1csc(Cl)c1` [Compound I-47, 5-chloro-N-((1R,3S)-3-((5-fluoro-2-(5-fluoro-1H-pyrazolo[3,4-b]pyridin-3-yl)pyrimidin-4-yl)amino)cyclohexyl)thiophene-3-carboxamide], in experiment [1] (setting [5]), the concentration for half-maximal inhibition (IC50) is < 3.3 µM. Further, in experiment [2] (setting [4]), the EC50 was < 3.3 µM.

`COC1CCN(C(=O)N[C@@H]2CCC[C@H](Nc3nc(-c4n[nH]c5ncc(Cl)cc45)ncc3F)C2)C1` (stereo partly drawn) [Compound I-5, N-((1R,3S)-3-((2-(5-chloro-1H-pyrazolo[3,4-b]pyridin-3-yl)-5-fluoropyrimidin-4-yl)amino)cyclohexyl)-3-methoxypyrrolidine-1-carboxamide]: the half-inhibitory concentration (IC50) in experiment [1] (setting [3]) is < 3.3 µM. Besides, in experiment [2] (setting [4]), the half-maximal effective concentration (EC50) was < 3.3 µM.

Consider `O=C(N[C@@H]1CCC[C@H](Nc2nc(-c3n[nH]c4ncccc34)ncc2F)C1)N1CC[C@@H](F)C1` [Compound I-19, (R)-3-fluoro-N-((1R,3S)-3-((5-fluoro-2-(1H-pyrazolo[3,4-b]pyridin-3-yl)pyrimidin-4-yl)amino)cyclohexyl)pyrrolidine-1-carboxamide], for which, in experiment [1] (setting [3]), the IC50 was < 3.3 µM. In addition, the EC50 in experiment [2] (setting [4]) was < 3.3 µM.

Turning to `C[C@H]1CCN(C(=O)N[C@@H]2CCC[C@H](Nc3nc(-c4n[nH]c5ncccc45)ncc3F)C2)C1` [Compound I-25, (S)—N-((1R,3S)-3-((5-fluoro-2-(1H-pyrazolo[3,4-b]pyridin-3-yl)pyrimidin-4-yl)-amino)cyclohexyl)-3-methylpyrrolidine-1-carboxamide], the IC50 in experiment [1] (setting [3]) was < 3.3 µM. Further, the half-maximal effective concentration (EC50) in experiment [2] (setting [4]) was < 3.3 µM.

`O=C(O)[C@@H]1C2CCC(CC2)[C@H]1Nc1nc(-c2n[nH]c3ncc(F)cc23)ncc1Cl` [Compound I-35, (2R,3R)-3-((5-chloro-2-(5-fluoro-1H-pyrazolo[3,4-b]pyridin-3-yl)pyrimidin-4-yl)amino)bicyclo[2.2.2]octane-2-carboxylic acid]: in experiment [1] (setting [3]), the IC50 was < 3.3 µM. In addition, the EC50 in experiment [2] (setting [4]) is < 3.3 µM.

Consider `O=C(N[C@@H]1CCC[C@H](Nc2nc(-c3n[nH]c4ncc(F)cc34)ncc2F)C1)c1ccsc1` [Compound I-41, N-((1R,3S)-3-((5-fluoro-2-(5-fluoro-1H-pyrazolo[3,4-b]pyridin-3-yl)pyrimidin-4-yl)amino)cyclohexyl)thiophene-3-carboxamide], for which, in experiment [1] (setting [5]), the concentration for half-maximal inhibition (IC50) was < 3.3 µM. The concentration for a half-maximal effect (EC50) in experiment [2] (setting [4]) was < 3.3 µM.

As to `O=C(N[C@@H]1CCC[C@H](Nc2nc(-c3n[nH]c4ncccc34)ncc2F)C1)N1CCC(F)(F)C1` [Compound I-16, 3,3-difluoro-N-((1R,3S)-3-((5-fluoro-2-(1H-pyrazolo[3,4-b]pyridin-3-yl)pyrimidin-4-yl)amino)cyclohexyl)pyrrolidine-1-carboxamide], in experiment [1] (setting [3]), the concentration for half-maximal inhibition (IC50) was < 3.3 µM. Besides, the concentration giving a half-maximal response (EC50) in experiment [2] (setting [4]) was < 3.3 µM.

Consider `COC(=O)[C@H]1C2CCC(CC2)[C@@H]1Nc1nc(-c2n[nH]c3ncc(F)cc23)ncc1Cl` (racemic) [Compound I-32, (+/−)-trans-(2,3)-methyl 3-((5-chloro-2-(5-fluoro-1H-pyrazolo[3,4-b]pyridin-3-yl)pyrimidin-4-yl)amino)bicyclo[2.2.2]octane-2-carboxylate], for which the IC50 in experiment [1] (setting [3]) was < 3.3 µM. Also, the half-maximal effective concentration (EC50) in experiment [2] (setting [4]) was < 3.3 µM.

Turning to `O=C(O)[C@H]1C2CCC(CC2)[C@@H]1Nc1nc(-c2n[nH]c3ncc(F)cc23)ncc1F` [Compound I-31, (2S,3S)-3-(5-fluoro-2-(5-fluoro-1H-pyrazolo[3,4-b]pyridin-3-yl)pyrimidin-4-ylamino)bicyclo[2.2.2]octane-2-carboxylic acid sodium salt], the 50% inhibitory concentration (IC50) in experiment [1] (Table 1, read-out: Flu, MDCK IC50) was < 3.3 µM. Moreover, the 50% effective concentration (EC50) in experiment [2] (read-out: bDNA EC50, Table 1, mean EC50, viral RNA level 50% of control wells) is < 3.3 µM.

As to `O=C(N[C@@H]1CCC[C@H](Nc2nc(-c3n[nH]c4ncccc34)ncc2F)C1)N1CCC(F)CC1` [Compound I-20], in experiment [1] (setting [3]), the IC50 is < 3.3 µM. In addition, the EC50 in experiment [2] (setting [4]) is < 3.3 µM.

Regarding `O=C(N[C@@H]1CCC[C@H](Nc2nc(-c3n[nH]c4ncc(Cl)cc34)ncc2F)C1)N1CCCC1` [Compound I-3, N-((1R,3S)-3-((2-(5-chloro-1H-pyrazolo[3,4-b]pyridin-3-yl)-5-fluoropyrimidin-4-yl)amino)cyclohexyl)pyrrolidine-1-carboxamide], in experiment [1] (setting [3]), the half-maximal inhibitory concentration (IC50) is < 3.3 µM. For the same compound, the EC50 in experiment [2] (setting [4]) is < 3.3 µM.

As to `O=C(N[C@@H]1CCC[C@H](Nc2nc(-c3n[nH]c4ncccc34)ncc2F)C1)N1CCCCC1` [Compound I-22, N-((1R,3S)-3-((5-fluoro-2-(1H-pyrazolo[3,4-b]pyridin-3-yl)pyrimidin-4-yl)amino)-cyclohexyl)piperidine-1-carboxamide], the IC50 in experiment [1] (setting [3]) was < 3.3 µM. Moreover, in experiment [2] (setting [4]), the EC50 was < 3.3 µM.

On to `O=C(O)[C@H]1C2CCC(CC2)[C@@H]1Nc1nc(-c2n[nH]c3ncccc23)ncc1F` (racemic) [Compound I-11, (+/−)-trans-3-((5-fluoro-2-(1H-pyrazolo[3,4-b]pyridin-3-yl)pyrimidin-4-yl)amino)bicyclo-[2.2.2]octane-2-carboxylic acid], for which the IC50 in experiment [1] (setting [3]) was < 3.3 µM. In experiment [2] (setting [4]), the EC50 is < 3.3 µM.

By IC50 is commonly meant the concentration at which inhibition is half-maximal. Broadly, the EC50 is the concentration that produces a half-maximal response.
